Laboratory results taken from ChEMBL document CHEMBL1921727, “Stereoselective synthesis of (RP)-8-substituted-N⁶-acylated and N⁶-alkylated adenosine-3',5'-cyclic phosphorothioic acids as cAMP antagonists” (Eur J Med Chem, 2011).
Activity calls are given as the source filed them. The calls are words filed in the database; no cut-off is given here.

Key:
[1] = tested on: T-cell; assay: Induction of PKA activation in human CD3-positive T cells assessed as increase of cell proliferation after 72 hrs by [H]thymidine incorporation assay; type: cell-based
[2] = Antagonist activity at PKA in human CD3-positive T cells assessed as inhibition of cell proliferation after 72 hrs by [H]thymidine incorporation assay relative to (RP)-8-Br-cAMPS; type: functional
[3] = Cytotoxicity against human CD3-positive T cells assessed as [H]thymidine incorporation after 72 hrs by beta scintillation counting; type: cell-based; details: t-cell
[4] = tested on: T-cell; assay: Antagonist activity at PKA in human CD3-positive T cells assessed as inhibition of cell proliferation after 72 hrs by [H]thymidine incorporation assay; type: functional, cell-based
[5] = tested on: T-cell; assay: Induction of PKA activation in human CD3-positive T cells assessed as increase of cell proliferation after 72 hrs by [H]thymidine incorporation assay relative to (SP)-8-Br-cAMPS; type: cell-based

In the case of `CN(C)c1ncnc2c1nc(-c1ccco1)n2[C@@H]1O[C@@H]2COP(=O)([S-])O[C@H]2[C@H]1O.[Na+]` (stereo not given in full), the Activity [1] is reported as “Active”, the Ratio [2] is reported as 0.1 and the Activity [3] is reported as “Non-toxic”. The “Inhibition of cell proliferation (active/not active)” value (shortened to “Inhibition … (active/not active)”) [4] was “inactive”.

In the case of `O=P1([S-])OC[C@H]2O[C@@H](n3c(-c4ccco4)nc4c(NCc5ccccc5)ncnc43)[C@H](O)[C@@H]2O1.[Na+]` (stereo not given in full), the Ratio [5] is reported as 0.99, the Activity [1] is reported as “inactive” and the Activity [3] is reported as “Non-toxic”. For the same compound, the “Inhibition … (active/not active)” value [4] was “inactive”.

With `CCCCNc1ncnc2c1nc(-c1ccco1)n2[C@@H]1O[C@@H]2COP(=O)(S)O[C@H]2[C@H]1O` (stereo not given in full) the Activity [1] was “Active”, the Ratio [2] was 0.53 and the Activity [3] was “Non-toxic”. The “Inhibition … (active/not active)” value [4] was “Active”.

In the case of `CNc1ncnc2c1nc(-c1ccco1)n2[C@@H]1O[C@@H]2COP(=O)([S-])O[C@H]2[C@H]1O.[Na+]` (stereo not given in full), the Activity [1] is reported as “Active”, the Ratio [2] is reported as 0.2 and the Activity [3] is reported as “Non-toxic”. The “Inhibition … (active/not active)” value [4] was “Active”.

In the case of `CCCNc1ncnc2c1nc(-c1ccco1)n2[C@@H]1O[C@@H]2COP(=O)(S)O[C@H]2[C@H]1O` (stereo not given in full), the Activity [1] is reported as “Active”, the Ratio [2] is reported as 0.24 and the Activity [3] is reported as “Non-toxic”. The “Inhibition … (active/not active)” value [4] was “Active”.
